For one assay, the target named is AMPK. Kind of assay: AMPK activation, enzyme-linked immunosorbent assay. Type of assay: biochemical. As to conditions: compounds of Table 1 (Table 6). The method, then:
Compounds of Table 1 were assayed for their ability to activate AMPK using an enzyme-linked immunosorbent assay.
Compounds of Table 2 were assayed for their ability to activate AMPK using an enzyme-linked immunosorbent assay.
Compounds of Table 3 were assayed for their ability to activate AMPK using an enzyme-linked immunosorbent assay.
Compounds of Table 4 were assayed for their ability to activate AMPK using an enzyme-linked immunosorbent assay.
Compounds of Table 5 were assayed for their ability to activate AMPK using an enzyme-linked immunosorbent assay.
For orientation: EC50 means the midpoint of the concentration-response curve. Read a high EC50 as a less potent agent. Take `N#Cc1ccc(CN2CCC(NC3CCc4cc(OC5CCN(c6ccc(C(F)(F)F)cc6)CC5)ccc43)CC2)cc1` (centres unmarked) [1-160, 4-((4-(5-(1-(4-(trifluoromethyl)phenyl)piperidin-4-yloxy)-2,3-dihydro-1H-inden-1-ylamino)piperidin-1-yl)methyl)benzonitrile]: the EC50 was < 0.1 µM.

Take `N#Cc1ccc(CN2CCC(NC(=O)c3ccc(OC4CCN(c5ccc(C(F)(F)F)cc5)CC4)nc3)CC2)cc1` [1-35, N-(1-(4-cyanobenzyl)piperidin-4-yl)-6-(1-(4-(trifluoromethyl)phenyl)piperidin-4-yloxy)nicotinamide]: the EC50 fell in the range of 0.1 to 0.5 µM.

`N#Cc1ccc(CN2CCC(Oc3ccc4oc(C(=O)NC5CCN(Cc6ccccc6)CC5)cc4c3)CC2)cc1` [1-70, N-(1-benzylpiperidin-4-yl)-5-(1-(4-cyanobenzyl)piperidin-4-yloxy)benzofuran-2-carboxamide]: the EC50 was < 0.1 µM.

With `N#Cc1ccc(CN2CCC(Oc3ccc4oc(C(=O)NC5CCN(Cc6ccccc6)CC5)cc4c3)CC2)cc1` [1-114, N-(1-benzylpiperidin-4-yl)-5-(1-(4-cyanobenzyl)piperidin-4-yloxy)benzofuran-2-carboxamide], the EC50 was in the range of 0.1 to 0.5 µM.

As for `N#Cc1ccc(CN2CCC(NC(=O)c3ccc(OC4CCN(c5ccc(C#N)cc5)CC4)cn3)CC2)cc1` [1-2, N-(1-(4-cyanobenzyl)piperidin-4-yl)-5-(1-(4-cyanophenyl)piperidin-4-yloxy)picolinamide], the concentration giving a half-maximal response (EC50) is < 0.1 µM.

`O=C(NC1CCN(Cc2ccccc2)CC1)c1cc2cc(OC3CCN(Cc4ccc(F)c(F)c4)CC3)ccc2o1` [1-74, N-(1-benzylpiperidin-4-yl)-5-(1-(3,4-difluorobenzyl)piperidin-4-yloxy)benzofuran-2-carboxamide]: the EC50 was in the range of 0.1 to 0.5 µM.

`O=C(NC1CCN(Cc2ccc3ccccc3c2)CC1)c1ccc(OC2CCN(c3ccc(C(F)(F)F)cc3)CC2)cn1` [1-37, N-(1-(naphthalen-2-ylmethyl)piperidin-4-yl)-5-(1-(4-(trifluoromethyl)phenyl)piperidin-4-yloxy)picolinamide] gave an EC50 of 0.5 to 1 µM.

Compound `O=C(N[C@H]1CCN(Cc2ccc(F)cc2)C1)c1ccc(OC2CCN(c3ccc(C(F)(F)F)cc3)CC2)cn1` [1-32, (S)-N-(1-(4-fluorobenzyl)pyrrolidin-3-yl)-5-(1-(4-(trifluoromethyl)phenyl)piperidin-4-yloxy)picolinamide] returned an EC50 of 0.1 to 0.5 µM.

As for `O=C(c1ccc(F)cc1)N1CCC(NS(=O)(=O)c2ccc(OC3CCN(c4ccc(C(F)(F)F)cc4)CC3)nc2)CC1` [1-60, N-(1-(4-fluorobenzoyl)piperidin-4-yl)-6-(1-(4-(trifluoromethyl)phenyl)piperidin-4-yloxy)pyridine-3-sulfonamide], the EC50 is > 10 µM.

Consider `N#Cc1ccc(N2CCC(Oc3ccc(S(=O)(=O)NC4CCN(Cc5ccncc5)CC4)cn3)CC2)cc1` [1-52, N-(1-(pyridin-4-ylmethyl)piperidin-4-yl)-6-(1-(4-cyanophenyl)piperidin-4-yloxy)pyridine-3-sulfonamide], for which the EC50 lay in the range of 0.1 to 0.5 µM.

Take `O=C(N[C@H]1CCNC1)c1ccc(OC2CCN(c3ccc(C(F)(F)F)cc3)CC2)cn1` [1-27, (S)-N-(pyrrolidin-3-yl)-5-(1-(4-(trifluoromethyl)phenyl)piperidin-4-yloxy)picolinamide]: the EC50 is > 10 µM.

Consider `CN(C(=O)c1cc2cc(OC3CCN(c4ccc(C(F)(F)F)cc4)CC3)ccc2o1)C1CCN(Cc2ccccn2)CC1` [1-117, N-methyl-N-(1-(pyridin-2-ylmethyl)piperidin-4-yl)-5-(1-(4-(trifluoromethyl)phenyl)piperidin-4-yloxy)benzofuran-2-carboxamide], for which the EC50 is < 0.1 µM.

Regarding `CN(C(=O)c1cc2cc(OC3CCN(c4ccc(C(F)(F)F)cc4)CC3)ccc2o1)C1CCN(Cc2ccc(C(F)(F)F)cc2)CC1` [1-119, N-methyl-N-(1-(4-(trifluoromethyl)benzyl)piperidin-4-yl)-5-(1-(4-(trifluoromethyl)phenyl)piperidin-4-yloxy)benzofuran-2-carboxamide], the EC50 was < 0.1 µM.

For the compound `O=C(NC1CCN(Cc2ccccc2)CC1)c1cc2cc(OC3CCN(c4ccc(OC(F)(F)F)cc4)CC3)ccc2o1` [1-80, N-(1-benzylpiperidin-4-yl)-5-(1-(4-(trifluoromethoxy)phenyl)piperidin-4-yloxy)benzofuran-2-carboxamide], the EC50 is < 0.1 µM.

Still in this assay, the particulars now being: compounds of Table 2 (Table 7).
For `NC(=O)c1ccc(CN2CCC(NC(=O)c3ccc4[nH]c5c(c4c3)CN(Cc3ccc(C(F)(F)F)cc3)CC5)CC2)cc1` [2-52, N-(1-(4-carbamoyl-benzyl)piperidin-4-yl)-2-(4-(trifluoromethyl)benzyl)-2,3,4,5-tetrahydro-1H-pyrido [4,3-b]indole-8-carboxamide], the half-maximal effective concentration (EC50) fell in the range of 1 to 5 µM.

The compound `Cn1c2c(c3cc(C(=O)NC4CCN(Cc5ccc(C(F)(F)F)cc5)CC4)ccc31)CN(Cc1ccc(C(F)(F)F)cc1)CC2` [2-17, N-(1-(4-trifluoro-methylbenzyl)piperidin-4-yl)-5-methyl-2-(4-(trifluoromethyl)benzyl)-2,3,4,5-tetrahydro-1H-pyrido[4,3-b]indole-8-carboxamide] registered an EC50 of 0.5 to 1 µM.

The same assay, now with this note: compounds of Table 3 (Table 8).
As for `N#Cc1ccc(CN2CCC(NC(=O)c3ccc(C(=O)NC4CCN(Cc5ccc(C(F)(F)F)cc5)CC4)cc3)CC2)cc1` [3-31, N^1-(1-(4-cyanobenzyl)piperidin-4-yl)-N^4-(1-(4-(trifluoromethyl)benzyl)piperidin-4-yl)terephthalamide], the EC50 is < 0.1 µM.

`N#Cc1ccc(CN2CC3CC2CN3C(=O)c2nc3ccc(OC4CCN(c5ccc(C(F)(F)F)cc5)CC4)cc3o2)cc1` (centres unmarked) [3-10, 4-((5-(6-(1-(4-(trifluoromethyl)phenyl)piperidin-4-yloxy)benzo[d]oxazole-2-carbonyl)-2,5-diazabicyclo[2.2.1]heptan-2-yl)methyl)benzonitrile]: the EC50 fell in the range of 0.1 to 1 µM.

As for `N#Cc1ccc(CN2CCc3ccc(C(=O)NC4CCN(Cc5cccnc5)CC4)cc3C2)cc1` [3-38, 2-(4-cyanobenzyl)-N-(1-(pyridin-3-ylmethyl)piperidin-4-yl)-1,2,3,4-tetrahydroisoquinoline-7-carboxamide], the EC50 is < 0.1 µM.

The assay is the same for the next values; noted with them: compounds of Table 4 (Table 9).
`N#Cc1ccc(CN2CCC(NC(=O)c3ccc(C(=O)N4CCN(Cc5ccc(C#N)cc5)CC4)cn3)CC2)cc1` [4-1, 5-(4-(4-cyanobenzyl)piperazine-1-carbonyl)-N-(1-(4-cyanobenzyl)piperidin-4-yl)picolinamide]: the half-maximal effective concentration (EC50) was < 0.5 µM.

Still in this assay, the particulars now being: compounds of Table 5 (Table 10).
`CC(C)(C)OC(=O)NCCCNC(=O)c1ccc(OC2CCN(Cc3ccccc3)CC2)c(Cl)c1` [5-102, tert-butyl 3-(4-(1-benzylpiperidin-4-yloxy)-3-chlorobenzamido)propylcarbamate] yielded an EC50 of 10 to 20 µM.

In the case of `O=C(NC1CCN(Cc2ccccc2)CC1)c1ccc(OC2CCNCC2)c(Cl)c1` [5-93, N-(1-benzylpiperidin-4-yl)-3-chloro-4-(piperidin-4-yloxy)benzamide], the EC50 was > 100 µM.

Turning to `O=C(c1ccc(OC2CCN(Cc3ccccc3)CC2)cc1)N1CCN(Cc2ccccn2)CC1` [5-105, (4-(1-benzylpiperidin-4-yloxy)phenyl)(4-(pyridin-2-ylmethyl)piperazin-1-yl)methanone], the EC50 was in the range of 10 to 20 µM.

Take `COc1ccc(CN2CCC(Oc3ccc(C(=O)NC4CCN(Cc5ccccc5)CC4)cc3Cl)CC2)cc1` [5-1, N-(1-benzylpiperidin-4-yl)-3-chloro-4-(1-(4-methoxybenzyl)piperidin-4-yloxy)benzamide]: the half-maximal effective concentration (EC50) was < 1 µM.

`O=C(NC1CCN(Cc2ccccc2)CC1)c1ccc(OC2CCN(Cc3ccc(F)c(F)c3)CC2)c(F)c1` [5-69, N-(1-benzylpiperidin-4-yl)-4-(1-(3,4-difluorobenzyl)piperidin-4-yloxy)-3-fluorobenzamide]: the EC50 was < 1 µM.

Take `COC(=O)c1ccc(CN2CCC(NC(=O)c3ccc(OC4CCN(c5ccc(C(F)(F)F)cc5)CC4)c(F)c3)CC2)cc1` [5-33, methyl 4-((4-(3-fluoro-4-(1-(4-(trifluoromethyl)phenyl)piperidin-4-yloxy)benzamido)piperidin-1-yl)methyl)benzoate]: the EC50 is < 1 µM.

In turn, `O=C(O)c1ccc(CN2CCC(NC(=O)c3ccc(OC4CCN(c5ccc(C(F)(F)F)cc5)CC4)c(F)c3)CC2)cc1` [5-35, 4-((4-(3-fluoro-4-(1-(4-(trifluoromethyl)phenyl)piperidin-4-yloxy)benzamido)piperidin-1-yl)methyl)benzoic acid] came in with an EC50 of 1 to 10 µM.

On to `Cn1cncc1CN1CCC(Oc2ccc(C(=O)NC3CCN(Cc4ccccc4)CC3)cc2)CC1` [5-4, N-(1-benzylpiperidin-4-yl)-4-(1-((1-methyl-1H-imidazol-5-yl)methyl)piperidin-4-yloxy)benzamide], for which the EC50 is > 100 µM.

With `COc1cc(C(=O)NC2CCN(Cc3ccccc3)CC2)ccc1OC1CCN(c2cccs2)CC1` [5-8, N-(1-benzylpiperidin-4-yl)-3-methoxy-4-(1-(thiophen-2-yl)piperidin-4-yloxy)benzamide], the EC50 was 1 to 10 µM.

Take `CC(C)(C)OC(=O)NCCCNC(=O)c1ccc(OC2CCN(Cc3ccc(C(F)(F)F)cc3)CC2)cc1` [5-95, tert-butyl 3-(4-(1-(4-(trifluoromethyl)benzyl)piperidin-4-yloxy)benzamido)propylcarbamate]: the EC50 is < 1 µM.

`N#Cc1ccc(CN2CCC(NC(=O)c3ccc(OC4CCN(c5ccc(C#N)cc5)CC4)c(F)c3)CC2)cc1` [5-45, N-(1-(4-cyanobenzyl)piperidin-4-yl)-4-(1-(4-cyanophenyl)piperidin-4-yloxy)-3-fluorobenzamide]: the EC50 is < 1 µM.

Compound `N#Cc1ccc(N2CCC(Oc3cccc(C(=O)NC4CCN(Cc5ccncc5)CC4)c3)CC2)cc1` [5-88, N-(1-(pyridin-4-ylmethyl)piperidin-4-yl)-3-(1-(4-cyanophenyl)piperidin-4-yloxy)benzamide] gave an EC50 of 1 to 10 µM.
